From ChEMBL document CHEMBL3507680, “University of Dundee, Gates Library screen for HepG2 cell viability” come the findings set out here.

The series in a line: Human HepG2 cell viability assay in 384 well format. The format is toxicity, cell-based. Details: dose 125 nL, time 70.5 hour; concentration not given beside the values. The conditions noted are these: HepG2 cells, read-out: Inhibition.
Take `CC(=O)N1C[C@@H](c2ccsc2)[C@@H]2CN(CC3CCCCC3)CC[C@@H]21`: the cytotoxicity at 70.5 h is -5.59%.

With `Cc1nc(-c2ccccc2C(=O)O)cc(C2CCN(C(C)C)C2)n1` (stereo not drawn), the cytotoxicity at 70.5 h is 10.7%.

As to `O=C(NC[C@]1(O)CN(Cc2ccc(F)cc2)C[C@H]1O)c1ccccn1`, the cytotoxicity at 70.5 h was -6.05%.

Take `CC(=O)N1C[C@@H](c2ccsc2)[C@@H]2CN(Cc3ccccc3Cl)CC[C@@H]21`: the cytotoxicity at 70.5 h is -5.99%.

Take `COc1cccc(-c2noc(C3CCN(Cc4ccncc4)C3)n2)c1` (stereo not drawn): the cytotoxicity at 70.5 h is -3.26%.

Take `Cc1nccn1-c1nccnc1C1CCN(Cc2ccc(F)cc2)CC1`: the cytotoxicity at 70.5 h was 24.1%.

With `Cc1cnc(Nc2nccnc2C2CCN(C)CC2)s1`, the cytotoxicity at 70.5 h was -19.6%.

`CN1CCc2nc(C3CCN(C(=O)CCC4CCCC4)CC3)ncc2C1`: the cytotoxicity at 70.5 h was -16.6%.

`CC(=O)Nc1nc(C2CCN(C(C)=O)CC2)cs1`: the cytotoxicity at 70.5 h is -22%.

In the case of `CC(=O)N1CCCC(c2ccc(Nc3nc(C)cc(C)n3)cn2)C1` (stereo not drawn), the cytotoxicity at 70.5 h was -12%.

As for `O=C(c1cccc(F)c1)N1CCOC(c2nc(-c3ncccn3)no2)C1` (stereo not drawn), the cytotoxicity at 70.5 h was -5.4%.

`Cc1cc(-c2cnc(NCc3cccnc3)nc2C(C)C)on1`: the cytotoxicity at 70.5 h is -25.7%.

On to `Cc1cc(-c2cnc(NCc3cccnc3)nc2C(C)(C)C)on1`, for which the cytotoxicity at 70.5 h is -18.2%.

For the compound `Cc1n[nH]c(C)c1-c1cnc(CC2CCN(C)C2)cn1` (stereo not drawn), the cytotoxicity at 70.5 h is -17.7%.

As for `Cn1nccc1C(=O)N1CCOC(Cc2cccnc2)C1` (stereo not drawn), the cytotoxicity at 70.5 h is 16%.

Consider `COCC1CCN(c2cc(C3CN(C)CCO3)nc(C)n2)CC1` (stereo not drawn), for which the cytotoxicity at 70.5 h turned out to be 0.671%.

For the compound `CC(=O)N1CCCC1c1nccnc1Nc1cccc(C)n1` (stereo not drawn), the cytotoxicity at 70.5 h is -16.6%.

On to `CC(C)C(=O)N1CCCC(c2ncncc2-c2ccncc2)C1` (stereo not drawn), for which the cytotoxicity at 70.5 h was 13.6%.

Consider `Cc1cc(C)cc(-c2cccc(CC3(C(=O)O)CCOCC3)c2)c1`, for which the cytotoxicity at 70.5 h amounted to 43.6%.

Turning to `O=C(NCCCN1CCOCC1)Nc1cnc2cc(Cl)ccc2c1O`, the cytotoxicity at 70.5 h was 9.66%.

In the case of `CC(C)C(=O)N1CCC(c2nc(O)cc(-c3ccncc3)n2)CC1`, the cytotoxicity at 70.5 h is -15.8%.

`Cc1cc(C(=O)N2Cc3ccccc3OC3(CCOCC3)C2)nc(N)n1`: the cytotoxicity at 70.5 h is -4.81%.

For `O=C(c1ccco1)N1CCCC(c2cc(C(F)F)n3ncnc3n2)C1` (stereo not drawn), the cytotoxicity at 70.5 h is -14.3%.

In the case of `O=C(c1cncc(Br)c1)N1CCC(O)(Cn2ccc3ccncc32)CC1`, the cytotoxicity at 70.5 h was -13.2%.

For the compound `O=C(O)C1(Cc2cc(-c3cccc(F)c3)no2)CCOCC1`, the cytotoxicity at 70.5 h is -24%.

Turning to `O=C(c1cnco1)N1C[C@@H]2CC[C@H](Oc3ccccc3F)[C@@H]2C1`, the cytotoxicity at 70.5 h was determined as 40.3%.

As to `O=C(c1ccnnc1)N1C[C@@H]2CC[C@H](Oc3cccc(F)c3)[C@@H]2C1`, the cytotoxicity at 70.5 h was -0.575%.

As for `CS(=O)(=O)c1cncnc1C1CCCNC1` (stereo not drawn), the cytotoxicity at 70.5 h was -8.78%.

With `Cc1ncsc1C(=O)NCCn1nc(C2CCNC2)c2cccnc21` (stereo not drawn), the cytotoxicity at 70.5 h was -14.3%.

In the case of `COCc1ccc(CN2CCC(O)(Cn3ccc4ncccc43)CC2)o1`, the cytotoxicity at 70.5 h was -8.64%.

Regarding `Cc1ccc2c(c1)CN(C(=O)c1ccccc1F)C(CN(C)C)CO2` (stereo not drawn), the cytotoxicity at 70.5 h was -24.7%.

Turning to `CC[C@H](N)Cn1nc(-c2cccs2)oc1=O`, the cytotoxicity at 70.5 h is -26.2%.

As for `c1cnc2c(c1)cc(C1CCOCC1)n2CCN1CCOCC1`, the cytotoxicity at 70.5 h was -11.3%.

For the compound `COc1ccc(OCc2sc(C3(O)CCCNCC3)nc2C)cc1` (stereo not drawn), the cytotoxicity at 70.5 h is -10.3%.

With `CCN1CCN(Cc2ccnc(-c3cccnc3)n2)CC1`, the cytotoxicity at 70.5 h is -2.52%.

For the compound `Cc1ccc(CN(Cc2c[nH]cn2)C2CC(C)(C)NC(C)(C)C2)o1`, the cytotoxicity at 70.5 h is -9.95%.

On to `O[C@@]1(c2ccccn2)CC[C@H]2CN(Cc3cccc(Cl)c3Cl)C[C@H]21`, for which the cytotoxicity at 70.5 h is -10.2%.

As to `COc1ccc(CN2C[C@H]3CC[C@](O)(c4ccc(C)cn4)[C@H]3C2)c(F)c1`, the cytotoxicity at 70.5 h is -0.817%.
